Reference: patent US20090105250A1, “COMPOUNDS AND COMPOSITIONS AS PROTEIN KINASE INHIBITORS” (IRM LLC, priority 2005, published 2009)

Columns and labels:
Format in all cases: cell-based
T315I Bcr-abl = target: T1, T315I Bcr-abl (Homo sapiens, UniProt P00519, T315I); assay: Proliferation of Ba/F3 cells expressing mutant Bcr-abl T315I
T1 construct: expressed in transfected cells; host or cells: Ba/F3 murine pro-B cells; the other entry of the earlier key: BCR (P11274, Breakpoint cluster region protein)
Description: (§1) Ba/F3-p210 cells are plated into 96 well TC plates at a density of 15,000 cells per well. 50 μL of two fold serial dilutions of the test compound (Cmax, is […]) are added to each well (STI571 is included as a positive control). After incubating the cells for 48 hours at 37° C., 5% CO2, 15 μL of MTT (Promega) is added to each well and the cells are incubated for an additional 5 hours. The optical density at 570 nm is quantified spectrophotometrically and IC50 values, the concentration of compound required for 50% inhibition, determined from a dose response curve.
(§2) Compounds of the invention are tested for their antiproliferative effect on Ba/F3 cells expressing either wild type or the mutant forms of BCR-Abl (G250E, E255V, T315I, F317L, M351T) that confers resistance or diminished sensitivity to STI571. The antiproliferative effect of these compounds on the mutant-BCR-Abl expressing cells and on the non transformed cells were tested as described above. The IC50 values of the compounds lacking toxicity on the untransformed cells were determined from the dose response curves obtained as describe above.

M351T Bcr-abl = target: T2, M351T Bcr-abl (Homo sapiens, UniProt P00519, M351T); assay: Proliferation of Ba/F3 cells expressing mutant Bcr-abl M351T
T2 construct: expressed in transfected cells; host or cells: Ba/F3 murine pro-B cells; the other entry of the earlier key: BCR (P11274, Breakpoint cluster region protein)
Description: as §1, §2

wild type Bcr-abl = target: T3, wild type Bcr-abl (Homo sapiens, UniProt P00519); assay: Proliferation of Ba/F3 cells expressing wild type Bcr-abl
T3 construct: expressed in transfected cells; host or cells: Ba/F3 murine pro-B cells; the other entry of the earlier key: BCR (P11274, Breakpoint cluster region protein)
Description: The murine cell line used is the Ba/F3 murine pro-B cell line transformed with BCR-Abl cDNA (Ba/F3-p210). These cells are maintained in RPMI/10% fetal calf serum (RPMI/FCS) supplemented with penicillin 50 μg/mL, streptomycin 50 μg/mL and L-glutamine 200 mM. Untransformed Ba/F3 Ba/F3 cells are similarly maintained with the addition of murine recombinant IL3.
as §1
as §2, with “The antiproliferative effect of these compounds on the mutant-BCR-Abl expressing cells and on the non transformed cells were tested as described above.” left out

F317L Bcr-abl = target: T4, F317L Bcr-abl (Homo sapiens, UniProt P00519, F317L); assay: Proliferation of Ba/F3 cells expressing mutant Bcr-abl F317L
T4 construct: expressed in transfected cells; host or cells: Ba/F3 murine pro-B cells; the other entry of the earlier key: BCR (P11274, Breakpoint cluster region protein)
Description: as §1, §2

G250E Bcr-abl = target: T5, G250E Bcr-abl (Homo sapiens, UniProt P00519, G250E); assay: Proliferation of Ba/F3 cells expressing mutant Bcr-abl G250E
T5 construct: expressed in transfected cells; host or cells: Ba/F3 murine pro-B cells; the other entry of the earlier key: BCR (P11274, Breakpoint cluster region protein)
Description: as §1, §2

E255V Bcr-abl = target: T6, E255V Bcr-abl (Homo sapiens, UniProt P00519, E255V); assay: Proliferation of Ba/F3 cells expressing mutant Bcr-abl E255V
T6 construct: expressed in transfected cells; host or cells: Ba/F3 murine pro-B cells; the other entry of the earlier key: BCR (P11274, Breakpoint cluster region protein)
T6 sequence (P00519 229-512 E255V limits assumed): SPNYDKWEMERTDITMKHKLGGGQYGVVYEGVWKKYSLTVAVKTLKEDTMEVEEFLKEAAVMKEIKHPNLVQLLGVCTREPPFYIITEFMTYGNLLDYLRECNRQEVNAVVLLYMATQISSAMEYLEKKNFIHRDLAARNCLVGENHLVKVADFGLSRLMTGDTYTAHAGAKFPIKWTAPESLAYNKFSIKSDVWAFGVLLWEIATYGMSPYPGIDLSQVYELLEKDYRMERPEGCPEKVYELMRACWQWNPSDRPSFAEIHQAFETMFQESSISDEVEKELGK
Description: as §1, §2

Flt-3 = target: T7, Flt-3 (Homo sapiens, UniProt P36888, cells depend on it, form not given); assay: FLT3 (Cellular Assay), Ba/F3-FLT3-ITD proliferation; settings: read-out: IC50 for Flt-3
T7 sequence (P36888 1-993): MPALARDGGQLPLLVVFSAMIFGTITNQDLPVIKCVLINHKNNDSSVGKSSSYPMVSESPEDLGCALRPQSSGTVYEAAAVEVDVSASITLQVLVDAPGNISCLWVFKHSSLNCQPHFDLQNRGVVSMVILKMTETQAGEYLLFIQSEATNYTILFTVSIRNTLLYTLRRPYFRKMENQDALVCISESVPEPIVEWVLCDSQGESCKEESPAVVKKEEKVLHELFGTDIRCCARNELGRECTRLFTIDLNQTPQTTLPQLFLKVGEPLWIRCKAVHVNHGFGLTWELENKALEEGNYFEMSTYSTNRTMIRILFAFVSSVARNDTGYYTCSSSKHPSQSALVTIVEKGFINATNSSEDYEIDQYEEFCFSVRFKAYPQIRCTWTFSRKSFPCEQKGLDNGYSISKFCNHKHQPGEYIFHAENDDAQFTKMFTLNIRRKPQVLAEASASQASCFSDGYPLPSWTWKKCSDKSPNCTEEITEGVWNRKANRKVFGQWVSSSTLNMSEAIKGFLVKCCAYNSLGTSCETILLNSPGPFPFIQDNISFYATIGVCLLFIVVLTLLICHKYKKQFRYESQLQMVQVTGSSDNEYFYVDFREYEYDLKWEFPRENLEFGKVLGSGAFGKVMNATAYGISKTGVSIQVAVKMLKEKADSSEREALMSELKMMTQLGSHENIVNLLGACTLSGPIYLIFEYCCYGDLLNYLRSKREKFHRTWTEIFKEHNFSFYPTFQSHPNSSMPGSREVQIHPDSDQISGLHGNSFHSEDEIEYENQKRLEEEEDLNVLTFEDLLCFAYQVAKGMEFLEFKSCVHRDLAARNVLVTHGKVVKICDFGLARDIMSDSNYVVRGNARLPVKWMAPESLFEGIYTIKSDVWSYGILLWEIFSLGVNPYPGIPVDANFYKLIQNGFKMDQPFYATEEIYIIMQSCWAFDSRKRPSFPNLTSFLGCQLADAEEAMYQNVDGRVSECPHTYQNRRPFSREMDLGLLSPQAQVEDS

PDGFRβ = target: T8, PDGFRβ (Homo sapiens, UniProt P09619); assay: PDGFRβ (Cellular Assay), Ba/F3-Tel-PDGFRβ proliferation; settings: read-out: IC50 for PDGFRβ
T8 construct: fused on or other part: P41212 (Transcription factor ETV6)
T8 sequence (P09619 600-962 limits assumed, change not shown): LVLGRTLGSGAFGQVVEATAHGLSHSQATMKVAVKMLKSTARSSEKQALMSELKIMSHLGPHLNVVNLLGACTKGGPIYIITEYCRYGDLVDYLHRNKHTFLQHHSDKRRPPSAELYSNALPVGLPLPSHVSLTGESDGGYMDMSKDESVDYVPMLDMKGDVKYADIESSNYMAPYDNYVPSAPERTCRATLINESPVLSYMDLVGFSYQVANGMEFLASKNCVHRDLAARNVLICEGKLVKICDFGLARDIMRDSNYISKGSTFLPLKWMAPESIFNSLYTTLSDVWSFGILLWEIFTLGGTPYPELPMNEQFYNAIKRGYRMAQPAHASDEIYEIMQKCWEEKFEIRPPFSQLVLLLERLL

For `CCN1CCN(c2cc(Nc3ncc(C(=O)Nc4cc(NC(=O)c5cccc(C(F)(F)F)c5)ccc4C)s3)nc(C)n2)CC1` [Example 8, 2-[6-(4-ethyl-piperazin-1-yl)-2-methyl-pyrimidin-4-ylamino]-thiazole-5-carboxylic acid [2-methyl-5-(3-trifluoromethyl-benzoylamino)-phenyl]-amide], the IC50 (T315I Bcr-abl) was 1270 nM, the IC50 (M351T Bcr-abl) was 5 nM and the IC50 (wild type Bcr-abl) was 5 nM. The IC50 (F317L Bcr-abl) was 5 nM, the IC50 (G250E Bcr-abl) was 2290 nM and the IC50 (E255V Bcr-abl) was 12 nM.
With `Cc1cn(-c2cc(C(=O)Nc3ccc(C)c(NC(=O)c4cnc(NCCO)s4)c3)cc(C(F)(F)F)c2)cn1` [Compound 5, 2-(2-Hydroxy-ethylamino)-thiazole-5-carboxylic acid {2-methyl-5-[3-(4-methyl-imidazol-1-yl)-5-trifluoromethyl-benzoylamino]-phenyl}-amide] the GI50 (Flt-3) was 41 nM.
Work on `Cc1cn(-c2cc(C(=O)Nc3ccc(C)c(NC(=O)c4cnc(Nc5cc(N6CCOCC6)nc(C)n5)s4)c3)cc(C(F)(F)F)c2)cn1` [Example 28, 2-(2-methyl-6-morpholin-4-yl-pyrimidin-4-ylamino)-thiazole-5-carboxylic acid {2-methyl-5-[3-(4-methyl-imidazol-1-yl)-5-trifluoromethyl-benzoylamino]-phenyl}-amide] yielded a GI50 (PDGFRβ) of 5 nM.
In the case of `CCN1CCN(c2cc(Nc3ncc(C(=O)Nc4cc(NC(=O)c5cc(-n6cnc(C)c6)cc(C(F)(F)F)c5)ccc4C)s3)nc(C)n2)CC1` [Example 29, 2-[6-(4-ethyl-piperazin-1-yl)-2-methyl-pyrimidin-4-ylamino]-thiazole-5-carboxylic acid {2-methyl-5-[3-(4-methyl-imidazol-1-yl)-5-trifluoromethyl-benzoylamino]-phenyl}-amide], the IC50 (T315I Bcr-abl) is reported as 570 nM and the IC50 (wild type Bcr-abl) is reported as 8 nM.
